In paper PMC7914897, “Cytotoxic Potential of a-Azepano- and 3-Amino-3,4-SeCo-Triterpenoids” (International Journal of Molecular Sciences, 2021):
Like-named read-outs stand apart in the source and are kept apart here.

How the values were obtained:
[1] = test system: HCT-116 (Colon cancer); assay: NCI-60 screen (SRB, 48 h); settings: Homo sapiens; for GI50: HCT-116; for IC (TGI): read-out: TGI; for CC50: HCT-116, read-out: LC50
[2] = test system: SK-MEL-2 (Melanoma); assay: NCI-60 screen (SRB, 48 h); settings: Homo sapiens; for GI50: SK-MEL-2; for IC (TGI): SK-MEL-2, 48 h, read-out: TGI; for CC50: SK-MEL-2, read-out: LC50
[3] = test system: HCT-15 (Colon cancer); assay: NCI-60 screen (SRB, 48 h); settings: Homo sapiens; for GI50: HCT-15; for IC (TGI): HCT-15, 48 h, read-out: TGI; for CC50: HCT-15, read-out: LC50
[4] = test system: SN12C (Renal cancer); assay: NCI-60 screen (SRB, 48 h); settings: Homo sapiens; for IC (TGI): 48 h, read-out: TGI; for CC50: read-out: LC50
[5] = test system: SNB-19 (CNS cancer); assay: NCI-60 screen (SRB, 48 h); settings: Homo sapiens; for GI50: SNB-19; for IC (TGI): SNB-19, 48 h, read-out: TGI; for CC50: SNB-19, read-out: LC50
[6] = test system: NCI/ADR-RES (Ovarian cancer); assay: NCI-60 screen (SRB, 48 h); settings: Homo sapiens; for IC (TGI): 48 h, read-out: TGI; for CC50: read-out: LC50
[7] = test system: Leukemia subpanel; assay: cells; settings: Homo sapiens; for IC (TGI): 48 h, read-out: TGI MG_MID; for GI50: read-out: GI50 MG_MID; for CC50: read-out: LC50 MG_MID
[8] = test system: NIH 3T3 (non-malignant mouse fibroblasts); assay: SRB cytotoxicity assay, 72 h; type: cell-based; settings: Mus musculus, NIH3T3; NIH 3T3, 72 h, cut-off 30 µM; read-out: EC50
Summary of the method: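 Absorbance at 570 nm of SRB-stained cells gives % survival vs untreated controls, from which EC50 is determined. Treatment: 0–30 µM serial dilutions, 72 h, beginning 24 h post-seeding; DMSO ≤0.5%. TCA (10%) fixation, acetic acid wash.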

[9] = test system: K-562 (Leukemia); assay: NCI-60 screen (SRB, 48 h); settings: Homo sapiens; for GI50: K562; for IC (TGI): K562, 48 h, read-out: TGI; for CC50: K562, read-out: LC50
[10] = test system: U251 (CNS cancer); assay: NCI-60 screen (SRB, 48 h); settings: for GI50 / IC (TGI) / CC50: Homo sapiens; for GI50: U-251; for IC (TGI): U-251, 48 h, read-out: TGI; for CC50: U-251, read-out: LC50
[11] = test system: MDA-MB-31/ATCC (Breast cancer); assay: NCI-60 screen (SRB, 48 h); settings: Homo sapiens; for IC (TGI): 48 h, read-out: TGI; for CC50: read-out: LC50
[12] = test system: UACC-62 (Melanoma); assay: NCI-60 screen (SRB, 48 h); settings: Homo sapiens; for GI50: UACC-62; for IC (TGI): UACC-62, 48 h, read-out: TGI; for CC50: UACC-62, read-out: LC50
[13] = test system: Prostate cancer subpanel; assay: NCI-60 screen, subpanel; settings: Homo sapiens; for IC (TGI): 48 h, read-out: TGI MG_MID; for GI50: read-out: GI50 MG_MID; for CC50: read-out: LC50 MG_MID
[14] = test system: KM12 (Colon cancer); assay: NCI-60 screen (SRB, 48 h); settings: Homo sapiens; for GI50: KM12; for IC (TGI): KM12, 48 h, read-out: TGI; for CC50: KM12, read-out: LC50
[15] = test system: MALME-3M (Melanoma); assay: NCI-60 screen (SRB, 48 h); settings: Homo sapiens; for IC (TGI): 48 h, read-out: TGI; for CC50: read-out: LC50
[16] = test system: LOX IMVI (Melanoma); assay: NCI-60 screen (SRB, 48 h); type: cell-based; settings: Homo sapiens; for CC50: read-out: LC50 (the source's name)
[17] = test system: HS 578T (Breast cancer); assay: NCI-60 screen (SRB, 48 h); settings: Homo sapiens; for IC (TGI): 48 h, read-out: TGI; for CC50: read-out: LC50
[18] = test system: MCF7 (Breast cancer); assay: NCI-60 screen (SRB, 48 h); settings: Homo sapiens; for GI50: MCF7; for IC (TGI): MCF7, 48 h, read-out: TGI; for CC50: MCF7, read-out: LC50
[19] = test system: PC-3 (Prostate cancer); assay: NCI-60 screen (SRB, 48 h); settings: Homo sapiens; for GI50: PC-3; for IC (TGI): PC-3, 48 h, read-out: TGI; for CC50: PC-3, read-out: LC50
[20] = test system: RXF 393 (Renal cancer); assay: NCI-60 screen (SRB, 48 h); settings: Homo sapiens; for GI50: RXF 393; for IC (TGI): RXF 393, 48 h, read-out: TGI; for CC50: RXF 393, read-out: LC50
[21] = test system: IGROV1 (Ovarian cancer); assay: NCI-60 screen (SRB, 48 h); settings: Homo sapiens; for GI50: IGROV-1; for IC (TGI): IGROV-1, 48 h, read-out: TGI; for CC50: IGROV-1, read-out: LC50
[22] = test system: TK-10 (Renal cancer); assay: NCI-60 screen (SRB, 48 h); settings: Homo sapiens; for GI50: TK-10; for IC (TGI): TK-10, 48 h, read-out: TGI; for CC50: TK-10, read-out: LC50
[23] = test system: A549/ATCC (NSC lung cancer); assay: NCI-60 screen (SRB, 48 h); settings: Homo sapiens; for GI50: A549; for IC (TGI): A549, 48 h, read-out: TGI; for CC50: A549, read-out: LC50

C[C@H]1[C@H](C)CC[C@]2(CO)CC[C@]3(C)C(=CC[C@@H]4[C@@]5(C)CCCNC(C)(C)[C@@H]5CC[C@]43C)[C@H]12 [Compound 4, azepanouvaol]
GI50 [1]: 1.49 µM
activity at 10 µM ([1]; HCT-116, 48 h, read-out: Growth % of the Most Sensitive Cell Lines): -94.7%
IC (TGI) ([1]; HCT-116, 48 h): 2.81 µM
CC50 [1]: 5.31 µM
GI50 [2]: 1.9 µM
IC (TGI) [2]: 3.63 µM
CC50 [2]: 6.91 µM
GI50 [3]: 1.39 µM
IC (TGI) [3]: 2.75 µM
CC50 [3]: 5.52 µM
GI50 [4]: 1.64 µM
IC (TGI) [4]: 3.11 µM
CC50 [4]: 5.87 µM
GI50 [5]: 1.86 µM
IC (TGI) [5]: 3.43 µM
CC50 [5]: 6.31 µM
GI50 [6]: 1.76 µM
IC (TGI) [6]: 3.47 µM
CC50 [6]: 6.84 µM
IC (TGI) [7]: 3.28 µM
GI50 [7]: 1.32 µM
CC50 [7]: 8.02 µM
EC50 [8]: 2.77 ± 0.4 µM
GI50 [9]: 0.47 µM
IC (TGI) [9]: 2.02 µM
CC50 [9]: 6.68 µM
GI50 [10]: 1.67 µM
IC (TGI) [10]: 3.15 µM
CC50 [10]: 5.94 µM
Growth % of the Most Sensitive Cell Lines ([10]; U251, 1 dose 10 µM): −83.30%
GI50 [11]: 1.88 µM
IC (TGI) [11]: 3.48 µM
CC50 [11]: 6.43 µM
GI50 [12]: 1.85 µM
IC (TGI) [12]: 3.35 µM
CC50 [12]: 6.06 µM
IC (TGI) [13]: 3.06 µM
GI50 [13]: 1.64 µM
CC50 [13]: 5.7 µM
GI50 [14]: 1.84 µM
IC (TGI) [14]: 3.51 µM
CC50 [14]: 6.68 µM
GI50 [15]: 1.68 µM
IC (TGI) [15]: 3.44 µM
CC50 [15]: 7.08 µM
GI50 [16]: 1.59 µM
IC (TGI) ([16]; 48 h): 3.05 µM
activity at 10 µM ([16]; 48 h, 1 dose 10 µM, read-out: Growth % of the Most Sensitive Cell Lines): -94.9%
CC50 [16]: 5.84 µM
GI50 [17]: 2.05 µM
IC (TGI) [17]: 4.86 µM
CC50 [17]: 32.6 µM
GI50 [18]: 1.58 µM
IC (TGI) [18]: 3.39 µM
CC50 [18]: 7.28 µM
GI50 [19]: 1.55 µM
IC (TGI) [19]: 2.97 µM
CC50 [19]: 5.66 µM
GI50 [20]: 1.81 µM
IC (TGI) [20]: 3.51 µM
CC50 [20]: 6.79 µM
GI50 [21]: 1.85 µM
IC (TGI) [21]: 3.72 µM
CC50 [21]: 7.45 µM
GI50 [22]: 1.84 µM
IC (TGI) [22]: 3.32 µM
CC50 [22]: 5.97 µM
GI50 [23]: 1.74 µM
IC (TGI) [23]: 3.28 µM
CC50 [23]: 6.16 µM

CC1(C)NCCC[C@]2(C)[C@H]3C=CC4=C5C[C@@](C)(CO)CC[C@]5(C)CC[C@@]4(C)[C@]3(C)CC[C@@H]12 [Compound 6, azepano-glycyrrhetol-diene]
GI50 [1]: 2.73 µM
IC (TGI) ([1]; HCT-116, 48 h): 10.6 µM
CC50 [1]: 52.9 µM
GI50 [2]: 3.31 µM
IC (TGI) [2]: 12.2 µM
CC50 [2]: 38.9 µM
GI50 [3]: 4.21 µM
IC (TGI) [3]: 16.4 µM
CC50 [3]: 45.4 µM
GI50 [4]: 3.34 µM
IC (TGI) [4]: 12 µM
CC50 [4]: 41.7 µM
GI50 [5]: 11.6 µM
IC (TGI) [5]: 25.3 µM
CC50 [5]: 55.2 µM
GI50 [6]: 2.02 µM
IC (TGI) [6]: 4.52 µM
CC50 [6]: 10.4 µM
IC (TGI) [7]: 10.2 µM
GI50 [7]: 3.02 µM
CC50 [7]: 55.5 µM
EC50 [8]: 11.7 ± 1.4 µM
GI50 [9]: 3.18 µM
IC (TGI) [9]: 10.8 µM
CC50 [9]: 43.8 µM
GI50 [10]: 4.17 µM
IC (TGI) [10]: 15.9 µM
CC50 [10]: 45.5 µM
GI50 [11]: 14.5 µM
IC (TGI) [11]: 29.3 µM
CC50 [11]: 59.2 µM
GI50 [12]: 3.13 µM
IC (TGI) [12]: 10.9 µM
CC50 [12]: 37 µM
IC (TGI) [13]: 8.66 µM
GI50 [13]: 2.65 µM
CC50 [13]: 26.2 µM
GI50 [14]: 6.09 µM
IC (TGI) [14]: 20.3 µM
CC50 [14]: 55.1 µM
GI50 [15]: 2.64 µM
IC (TGI) [15]: 8.01 µM
CC50 [15]: 32.5 µM
IC (TGI) ([16]; 48 h): 6.76 µM
GI50 ([16]; read-out: GI50): 2.49 µM
CC50 [16]: 29 µM
GI50 [17]: 3.2 µM
IC (TGI) [17]: 13.2 µM
CC50 [17]: 71.2 µM
GI50 [18]: 3.14 µM
IC (TGI) [18]: 14.5 µM
CC50 [18]: 46.7 µM
GI50 [19]: 3.05 µM
IC (TGI) [19]: 12.3 µM
CC50 [19]: 38.7 µM
GI50 [20]: 1.84 µM
IC (TGI) [20]: 4.15 µM
CC50 [20]: 9.35 µM
GI50 [21]: 4.08 µM
IC (TGI) [21]: 14.8 µM
CC50 [21]: 46.6 µM
GI50 [22]: 2.66 µM
IC (TGI) [22]: 7.15 µM
CC50 [22]: 27.3 µM
GI50 [23]: 1.89 µM
IC (TGI) [23]: 3.71 µM
CC50 [23]: 7.31 µM
